Experimental data taken from patent US6355799B1, “Substituted benzene compounds, process for their preparation, and herbicidal and defoliant compositions containing them” (ISK Americas Incorporated, priority 1997, dated 2002).

Key:
Assay type in all cases: in vivo
[1] = tested on: redroot pigweed (Amaranthus retroflexus, AMARE); experiment: Pre-emerge test, greenhouse herbicide activity screening; details: rating scale 0-100, 14 days after application
Procedure, shortened: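 Compounds in acetone were track-sprayed at 187 l/ha, 15–1000 g ai/ha, onto sandy loam pots. Pre-emerge seeds were sown one day before spraying, with surface watering afterwards. Post-emerge plants were at the 2–3 leaf stage and sprayed with 0.25% v/v non-ionic surfactant. Injury was rated 0–100 at 14 days.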

[2] = tested on: barnyardgrass (Echinochloa crus-galli, ECHCG); experiment: as above; details: rating scale 0-100, 14 days after application
Procedure, shortened: (§1)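 Applied at 15–1000 g ai/ha from acetone in 187 l/ha spray volume. Post-emergence applications included 0.25% v/v non-ionic surfactant and reached plants sown 8–21 days before. Pre-emergence applications were incorporated by surface watering. Efficacy or crop damage was rated on a 0–100 scale after 14 days.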

[3] = tested on: common ragweed (Ambrosia artemisizfolia L., AMBEL); experiment: as above; details: rating scale 0-100, 14 days after application
Procedure, shortened: as §1

[4] = tested on: green foxtail (Setaria viridis, SETVI); experiment: as above; details: rating scale 0-100, 14 days after application
Procedure, shortened: as §1

[5] = tested on: ivyleaf morningglory (Ipomoea hederacea, IPOHE); experiment: as above; details: rating scale 0-100, 14 days after application
Procedure, shortened: as §1

[6] = tested on: johnsongrass (Sorghum halepense, SORHA); experiment: as above; details: rating scale 0-100, 14 days after application
Procedure, shortened: as §1

[7] = tested on: lambsquarters (Chenopodium album, CHEAL); experiment: as above; details: rating scale 0-100, 14 days after application
Procedure, shortened: as §1

[8] = tested on: large crabgrass (Digitaria sanguinalis, DIGSA); experiment: as above; details: rating scale 0-100, 14 days after application
Procedure, shortened: as §1

[9] = tested on: sicklepod (Cassia obtusifolia, CASOB); experiment: as above; details: rating scale 0-100, 14 days after application
Procedure, shortened: as §1

[10] = tested on: velvetleaf (Abutilon theophrasti, ABUTH); experiment: as above; details: rating scale 0-100, 14 days after application
Procedure, shortened: as §1

[11] = tested on: field corn (Zea mays L., var. Dekalb 535, CORN); experiment: Pre-emerge test, crop safety; details: rating scale 0-100, 14 days after application
Procedure, shortened: (§2)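 Plants grown in 10 cm pots of sandy loam mix received acetone-dissolved compounds through a moving flat-fan nozzle. Doses ranged from 15 to 1000 g ai/ha. Pre-emerge pots were seeded one day earlier, post-emerge pots 8–21 days earlier. Fourteen days on, each pot was graded 0–100 for damage.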

[12] = tested on: upland rice (Oryza sp., var. Tebonnet, RICE); experiment: Pre-emerge test, crop safety; details: rating scale 0-100, 14 days after application
Procedure, shortened: as §2

[13] = tested on: barnyardgrass (Echinochloa crus-galli, ECHCG); experiment: Post-emerge test, greenhouse herbicide activity screening; details: rating scale 0-100 (0 no damage, 100 complete death), 14 days after application
Procedure, shortened: (§3)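 Fourteen days after spraying, crop and weed injury was graded visually from 0, no effect, to 100, every plant dead. Test substances were dissolved in acetone and applied at 15–1000 g ai/ha with a flat-fan nozzle. Application was either pre-emergence, one day after sowing, or post-emergence at the 2–3 leaf stage.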

[14] = tested on: common ragweed (Ambrosia artemisizfolia L., AMBEL); experiment: as above; details: rating scale 0-100 (0 no damage, 100 complete death), 14 days after application
Procedure, shortened: as §3

[15] = tested on: green foxtail (Setaria viridis, SETVI); experiment: as above; details: rating scale 0-100 (0 no damage, 100 complete death), 14 days after application
Procedure, shortened: as §3

[16] = tested on: ivyleaf morningglory (Ipomoea hederacea, IPOHE); experiment: as above; details: rating scale 0-100 (0 no damage, 100 complete death), 14 days after application
Procedure, shortened: as §3

[17] = tested on: johnsongrass (Sorghum halepense, SORHA); experiment: as above; details: rating scale 0-100 (0 no damage, 100 complete death), 14 days after application
Procedure, shortened: as §3

[18] = tested on: lambsquarters (Chenopodium album, CHEAL); experiment: as above; details: rating scale 0-100 (0 no damage, 100 complete death), 14 days after application
Procedure, shortened: as §3

[19] = tested on: large crabgrass (Digitaria sanguinalis, DIGSA); experiment: as above; details: rating scale 0-100 (0 no damage, 100 complete death), 14 days after application
Procedure, shortened: as §3

[20] = tested on: redroot pigweed (Amaranthus retroflexus, AMARE); experiment: as above; details: rating scale 0-100 (0 no damage, 100 complete death), 14 days after application
Procedure, shortened: as §3

[21] = tested on: sicklepod (Cassia obtusifolia, CASOB); experiment: as above; details: rating scale 0-100 (0 no damage, 100 complete death), 14 days after application
Procedure, shortened: as §3

[22] = tested on: velvetleaf (Abutilon theophrasti, ABUTH); experiment: as above; details: rating scale 0-100 (0 no damage, 100 complete death), 14 days after application
Procedure, shortened: as §3

[23] = tested on: field corn (Zea mays L., var. Dekalb 535, CORN); experiment: Post-emerge test, crop safety; details: rating scale 0-100 (0 no damage, 100 complete death), 14 days after application
Procedure, shortened: as §1

[24] = tested on: upland rice (Oryza sp., var. Tebonnet, RICE); experiment: Post-emerge test, crop safety; details: rating scale 0-100 (0 no damage, 100 complete death), 14 days after application
Procedure, shortened: as §1

COc1c(Cl)cc(F)c(-n2c(=O)cc(C(F)(F)F)n(C)c2=O)c1CC(Cl)C(=O)OC(C)(C)C (stereo not drawn) [14-18]
Pre-emerge herbicidal activity, phytotoxicity rating AMARE ([1]; 63 g ai/ha): 100
Pre-emerge herbicidal activity, phytotoxicity rating AMARE ([1]; 250 g ai/ha): 100
Pre-emerge herbicidal activity, phytotoxicity rating ECHCG ([2]; 63 g ai/ha): 0
Pre-emerge herbicidal activity, phytotoxicity rating ECHCG ([2]; 250 g ai/ha): 20
Pre-emerge herbicidal activity, phytotoxicity rating AMBEL ([3]; 63 g ai/ha): 0
Pre-emerge herbicidal activity, phytotoxicity rating AMBEL ([3]; 250 g ai/ha): 70
Pre-emerge herbicidal activity, phytotoxicity rating SETVI ([4]; 63 g ai/ha): 0
Pre-emerge herbicidal activity, phytotoxicity rating SETVI ([4]; 250 g ai/ha): 20
Pre-emerge herbicidal activity, phytotoxicity rating IPOHE ([5]; 63 g ai/ha): 0
Pre-emerge herbicidal activity, phytotoxicity rating IPOHE ([5]; 250 g ai/ha): 20
Pre-emerge herbicidal activity, phytotoxicity rating SORHA ([6]; 63 g ai/ha): 0
Pre-emerge herbicidal activity, phytotoxicity rating SORHA ([6]; 250 g ai/ha): 10
Pre-emerge herbicidal activity, phytotoxicity rating CHEAL ([7]; 63 g ai/ha): 100
Pre-emerge herbicidal activity, phytotoxicity rating CHEAL ([7]; 250 g ai/ha): 100
Pre-emerge herbicidal activity, phytotoxicity rating DIGSA ([8]; 63 g ai/ha): 0
Pre-emerge herbicidal activity, phytotoxicity rating DIGSA ([8]; 250 g ai/ha): 90
Pre-emerge herbicidal activity, phytotoxicity rating CASOB ([9]; 63 g ai/ha): 0
Pre-emerge herbicidal activity, phytotoxicity rating CASOB ([9]; 250 g ai/ha): 20
Pre-emerge herbicidal activity, phytotoxicity rating ABUTH ([10]; 63 g ai/ha): 40
Pre-emerge herbicidal activity, phytotoxicity rating ABUTH ([10]; 250 g ai/ha): 70
Pre-emerge phytotoxicity rating, crop damage CORN ([11]; 63 g ai/ha): 0
Pre-emerge phytotoxicity rating, crop damage CORN ([11]; 250 g ai/ha): 0
Pre-emerge phytotoxicity rating, crop damage RICE ([12]; 63 g ai/ha): 0
Pre-emerge phytotoxicity rating, crop damage RICE ([12]; 250 g ai/ha): 10
Post-emerge Herbicidal Activity, phytotoxicity rating ECHCG ([13]; Rate 63 g ai/ha): 99
Post-emerge Herbicidal Activity, phytotoxicity rating ECHCG ([13]; Rate 250 g ai/ha): 100
Post-emerge Herbicidal Activity, phytotoxicity rating AMBEL ([14]; Rate 63 g ai/ha): 0
Post-emerge Herbicidal Activity, phytotoxicity rating AMBEL ([14]; Rate 250 g ai/ha): 10
Post-emerge Herbicidal Activity, phytotoxicity rating SETVI ([15]; Rate 63 g ai/ha): 10
Post-emerge Herbicidal Activity, phytotoxicity rating SETVI ([15]; Rate 250 g ai/ha): 20
Post-emerge Herbicidal Activity, phytotoxicity rating IPOHE ([16]; Rate 63 g ai/ha): 30
Post-emerge Herbicidal Activity, phytotoxicity rating IPOHE ([16]; Rate 250 g ai/ha): 60
Post-emerge Herbicidal Activity, phytotoxicity rating SORHA ([17]; Rate 63 g ai/ha): 10
Post-emerge Herbicidal Activity, phytotoxicity rating SORHA ([17]; Rate 250 g ai/ha): 30
Post-emerge Herbicidal Activity, phytotoxicity rating CHEAL ([18]; Rate 63 g ai/ha): 99
Post-emerge Herbicidal Activity, phytotoxicity rating CHEAL ([18]; Rate 250 g ai/ha): 100
Post-emerge Herbicidal Activity, phytotoxicity rating DIGSA ([19]; Rate 63 g ai/ha): 20
Post-emerge Herbicidal Activity, phytotoxicity rating DIGSA ([19]; Rate 250 g ai/ha): 60
Post-emerge Herbicidal Activity, phytotoxicity rating AMARE ([20]; Rate 63 g ai/ha): 100
Post-emerge Herbicidal Activity, phytotoxicity rating AMARE ([20]; Rate 250 g ai/ha): 100
Post-emerge Herbicidal Activity, phytotoxicity rating CASOB ([21]; Rate 63 g ai/ha): 20
Post-emerge Herbicidal Activity, phytotoxicity rating CASOB ([21]; Rate 250 g ai/ha): 60
Post-emerge Herbicidal Activity, phytotoxicity rating ABUTH ([22]; Rate 63 g ai/ha): 30
Post-emerge Herbicidal Activity, phytotoxicity rating ABUTH ([22]; Rate 250 g ai/ha): 60
Post-emerge phytotoxicity rating CORN (crop damage) ([23]; Rate 63 g ai/ha): 20
Post-emerge phytotoxicity rating CORN (crop damage) ([23]; Rate 250 g ai/ha): 50
Post-emerge phytotoxicity rating RICE (crop damage) ([24]; Rate 63 g ai/ha): 10
Post-emerge phytotoxicity rating RICE (crop damage) ([24]; Rate 250 g ai/ha): 25
